Measurements as given in paper doi:10.1101/2020.06.11.145995v1 (biorxiv, 2020).
Where two headings read alike, the source gives them in different places. Each block holds one molecule with its values, some of them ahead of it.

Columns and labels:
Assay in all cases: biochemical
FLT3(K663Q) = FLT3(K663Q) (Homo sapiens, UniProt P36888, K663Q)
LIMK2 = LIMK2 (Homo sapiens, UniProt P53671)
EGFR(G719S) = EGFR(G719S) (Homo sapiens, UniProt P00533, G719S)
ALK = ALK (Homo sapiens, UniProt Q9UM73)
MELK = MELK (Homo sapiens, UniProt Q14680)
LOK = LOK (Homo sapiens, UniProt O94804)
IRAK1 = IRAK1 (Homo sapiens, UniProt P51617)
CAMK2G = CAMK2G (Homo sapiens, UniProt Q13555)
CAMK2D = CAMK2D (Homo sapiens, UniProt Q13557)
CLK3 = CLK3 (Homo sapiens, UniProt P49761)
FLT3(D835Y) = FLT3(D835Y) (Homo sapiens, UniProt P36888, D835Y)
LIMK1 = LIMK1 (Homo sapiens, UniProt P53667)
FGFR3 = FGFR3 (Homo sapiens, UniProt P22607)
CDKL3 = CDKL3 (Homo sapiens, UniProt Q8IVW4)
DYRK1A = DYRK1A (Homo sapiens, UniProt Q13627)
MET(M1250T) = MET(M1250T) (Homo sapiens, UniProt P08581, M1250T)
AURKB = AURKB (Homo sapiens, UniProt Q96GD4)
MAP4K2 = MAP4K2 (Homo sapiens, UniProt Q12851)
CDK8 = CDK8 (Homo sapiens, UniProt P49336)
GRK1 = GRK1 (Homo sapiens, UniProt Q15835)
CHEK2 = CHEK2 (Homo sapiens, UniProt O96017)
BLK = BLK (Homo sapiens, UniProt P51451)
CHEK1 = CHEK1 (Homo sapiens, UniProt O14757)
FGR = FGR (Homo sapiens, UniProt P09769)
KIT(D816V) = KIT(D816V) (Homo sapiens, UniProt P10721, D816V)
CDK9 = CDK9 (Homo sapiens, UniProt P50750)
HIPK3 = HIPK3 (Homo sapiens, UniProt Q9H422)
LATS2 = LATS2 (Homo sapiens, UniProt Q9NRM7)
DCAMKL3 = DCAMKL3 (Homo sapiens, UniProt Q9C098)
[1] = read-out: CPT-1-70-1 (1uM) % control
[2] = read-out: HYJ-2-002-1 (1uM) % control

LATS2, sequence (Q9NRM7 whole entry): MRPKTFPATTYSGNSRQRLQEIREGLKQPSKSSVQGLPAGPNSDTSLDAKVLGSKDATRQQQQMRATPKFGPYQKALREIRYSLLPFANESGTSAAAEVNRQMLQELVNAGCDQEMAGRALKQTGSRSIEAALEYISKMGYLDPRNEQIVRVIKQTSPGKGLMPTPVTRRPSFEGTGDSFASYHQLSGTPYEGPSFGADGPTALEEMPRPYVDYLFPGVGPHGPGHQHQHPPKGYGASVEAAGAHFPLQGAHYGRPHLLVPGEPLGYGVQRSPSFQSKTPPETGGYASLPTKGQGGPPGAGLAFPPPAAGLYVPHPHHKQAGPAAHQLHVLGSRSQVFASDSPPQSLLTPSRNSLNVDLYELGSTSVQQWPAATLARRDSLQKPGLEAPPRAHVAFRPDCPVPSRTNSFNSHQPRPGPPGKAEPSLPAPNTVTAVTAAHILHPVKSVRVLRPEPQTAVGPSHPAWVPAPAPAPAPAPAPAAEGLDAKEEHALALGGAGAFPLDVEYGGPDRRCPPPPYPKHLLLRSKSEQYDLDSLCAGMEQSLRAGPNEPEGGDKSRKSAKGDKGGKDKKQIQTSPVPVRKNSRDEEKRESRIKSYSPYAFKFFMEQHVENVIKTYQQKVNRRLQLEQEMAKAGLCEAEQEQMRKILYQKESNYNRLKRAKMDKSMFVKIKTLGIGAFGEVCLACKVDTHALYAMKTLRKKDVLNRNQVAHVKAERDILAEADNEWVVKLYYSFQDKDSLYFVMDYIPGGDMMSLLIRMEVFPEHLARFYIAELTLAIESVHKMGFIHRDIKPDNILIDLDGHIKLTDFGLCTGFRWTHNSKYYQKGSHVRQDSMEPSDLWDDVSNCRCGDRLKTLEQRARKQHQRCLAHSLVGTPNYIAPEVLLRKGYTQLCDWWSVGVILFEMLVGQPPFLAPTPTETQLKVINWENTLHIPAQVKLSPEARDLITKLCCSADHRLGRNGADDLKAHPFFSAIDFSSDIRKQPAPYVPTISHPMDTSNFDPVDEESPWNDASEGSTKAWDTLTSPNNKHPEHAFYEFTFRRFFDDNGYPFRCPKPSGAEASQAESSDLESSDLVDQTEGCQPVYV
GRK1, sequence (Q15835 whole entry): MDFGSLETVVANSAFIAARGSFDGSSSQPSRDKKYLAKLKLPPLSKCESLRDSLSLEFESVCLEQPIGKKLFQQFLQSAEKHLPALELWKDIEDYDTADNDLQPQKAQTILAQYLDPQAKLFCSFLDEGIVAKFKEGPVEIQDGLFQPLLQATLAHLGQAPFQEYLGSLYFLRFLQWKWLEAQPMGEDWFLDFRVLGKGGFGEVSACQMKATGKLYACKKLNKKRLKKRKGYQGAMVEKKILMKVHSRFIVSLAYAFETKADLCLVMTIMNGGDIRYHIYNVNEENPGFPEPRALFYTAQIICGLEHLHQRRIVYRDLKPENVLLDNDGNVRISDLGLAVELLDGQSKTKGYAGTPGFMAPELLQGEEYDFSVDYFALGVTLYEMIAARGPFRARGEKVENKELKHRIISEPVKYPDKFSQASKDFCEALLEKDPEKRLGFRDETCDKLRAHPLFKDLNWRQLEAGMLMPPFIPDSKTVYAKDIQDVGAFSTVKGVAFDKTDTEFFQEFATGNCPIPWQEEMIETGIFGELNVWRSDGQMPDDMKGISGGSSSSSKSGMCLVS
CLK3, sequence (P49761 whole entry): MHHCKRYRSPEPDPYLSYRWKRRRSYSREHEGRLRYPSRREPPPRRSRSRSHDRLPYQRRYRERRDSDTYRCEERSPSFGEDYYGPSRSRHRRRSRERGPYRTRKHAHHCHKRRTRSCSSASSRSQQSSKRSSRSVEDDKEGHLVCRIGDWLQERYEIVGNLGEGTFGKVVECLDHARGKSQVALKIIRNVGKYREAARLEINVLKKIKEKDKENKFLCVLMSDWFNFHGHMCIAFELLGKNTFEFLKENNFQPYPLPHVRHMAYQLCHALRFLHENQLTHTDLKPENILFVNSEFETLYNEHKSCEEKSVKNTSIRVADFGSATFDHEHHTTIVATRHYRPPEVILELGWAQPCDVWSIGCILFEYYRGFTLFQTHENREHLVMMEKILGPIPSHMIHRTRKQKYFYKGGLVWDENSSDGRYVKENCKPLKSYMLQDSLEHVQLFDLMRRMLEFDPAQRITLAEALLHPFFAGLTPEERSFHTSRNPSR
BLK, sequence (P51451 whole entry): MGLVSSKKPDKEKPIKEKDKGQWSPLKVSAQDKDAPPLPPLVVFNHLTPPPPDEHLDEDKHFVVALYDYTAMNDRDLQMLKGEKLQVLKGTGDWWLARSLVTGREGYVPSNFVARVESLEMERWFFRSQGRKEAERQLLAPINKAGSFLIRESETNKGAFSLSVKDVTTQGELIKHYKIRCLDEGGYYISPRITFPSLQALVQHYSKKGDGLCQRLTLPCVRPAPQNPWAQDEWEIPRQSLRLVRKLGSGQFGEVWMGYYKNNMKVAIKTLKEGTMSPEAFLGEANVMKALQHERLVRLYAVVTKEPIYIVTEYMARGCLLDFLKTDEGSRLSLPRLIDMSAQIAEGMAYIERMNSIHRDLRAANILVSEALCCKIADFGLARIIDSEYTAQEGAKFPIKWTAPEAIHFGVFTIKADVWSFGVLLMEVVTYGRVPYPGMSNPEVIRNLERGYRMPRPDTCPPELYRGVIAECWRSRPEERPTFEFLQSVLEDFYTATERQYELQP
CHEK2, sequence (O96017 whole entry): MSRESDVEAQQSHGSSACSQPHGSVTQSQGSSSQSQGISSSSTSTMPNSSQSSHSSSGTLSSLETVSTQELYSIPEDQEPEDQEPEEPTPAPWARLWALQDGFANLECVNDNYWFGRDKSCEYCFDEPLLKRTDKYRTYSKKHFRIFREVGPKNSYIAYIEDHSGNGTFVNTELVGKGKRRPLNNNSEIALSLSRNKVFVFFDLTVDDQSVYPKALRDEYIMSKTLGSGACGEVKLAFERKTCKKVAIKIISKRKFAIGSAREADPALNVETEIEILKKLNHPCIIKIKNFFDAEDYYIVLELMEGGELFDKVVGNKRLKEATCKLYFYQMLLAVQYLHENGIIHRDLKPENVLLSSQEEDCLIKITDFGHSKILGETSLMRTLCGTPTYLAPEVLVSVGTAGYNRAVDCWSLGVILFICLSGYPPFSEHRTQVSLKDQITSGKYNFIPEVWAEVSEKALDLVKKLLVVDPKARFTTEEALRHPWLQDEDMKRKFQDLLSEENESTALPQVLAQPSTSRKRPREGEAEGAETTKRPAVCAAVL
LIMK1, sequence (P53667 whole entry): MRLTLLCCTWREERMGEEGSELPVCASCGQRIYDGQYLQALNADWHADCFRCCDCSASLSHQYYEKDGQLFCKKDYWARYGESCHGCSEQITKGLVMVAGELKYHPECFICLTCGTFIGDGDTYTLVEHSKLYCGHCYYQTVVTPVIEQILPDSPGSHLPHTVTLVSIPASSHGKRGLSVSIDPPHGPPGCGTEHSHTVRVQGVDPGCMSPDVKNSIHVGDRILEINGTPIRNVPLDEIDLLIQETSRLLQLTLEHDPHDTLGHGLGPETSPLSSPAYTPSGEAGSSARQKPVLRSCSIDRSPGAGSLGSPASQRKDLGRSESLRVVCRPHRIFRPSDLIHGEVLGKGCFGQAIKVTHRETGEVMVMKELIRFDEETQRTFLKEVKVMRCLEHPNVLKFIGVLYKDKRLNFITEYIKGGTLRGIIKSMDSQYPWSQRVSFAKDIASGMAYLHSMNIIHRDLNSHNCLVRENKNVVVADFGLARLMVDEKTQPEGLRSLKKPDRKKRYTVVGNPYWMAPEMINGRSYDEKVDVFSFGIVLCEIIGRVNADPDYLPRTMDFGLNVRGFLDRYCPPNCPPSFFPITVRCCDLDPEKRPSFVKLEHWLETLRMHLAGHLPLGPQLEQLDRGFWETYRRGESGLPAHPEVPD
CDK8, sequence (P49336 whole entry): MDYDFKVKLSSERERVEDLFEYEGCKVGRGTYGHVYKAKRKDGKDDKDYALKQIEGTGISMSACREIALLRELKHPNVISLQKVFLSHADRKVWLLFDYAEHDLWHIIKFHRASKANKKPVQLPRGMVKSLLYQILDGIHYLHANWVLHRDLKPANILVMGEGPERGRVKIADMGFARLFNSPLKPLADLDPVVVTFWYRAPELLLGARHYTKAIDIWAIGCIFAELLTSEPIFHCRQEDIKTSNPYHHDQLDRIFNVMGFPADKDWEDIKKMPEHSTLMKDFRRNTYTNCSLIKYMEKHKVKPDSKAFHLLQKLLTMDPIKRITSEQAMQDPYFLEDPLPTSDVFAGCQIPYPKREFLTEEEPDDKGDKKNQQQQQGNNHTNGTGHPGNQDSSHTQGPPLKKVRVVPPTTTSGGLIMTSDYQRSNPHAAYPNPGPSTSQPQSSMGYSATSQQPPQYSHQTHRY
MELK, sequence (Q14680 whole entry): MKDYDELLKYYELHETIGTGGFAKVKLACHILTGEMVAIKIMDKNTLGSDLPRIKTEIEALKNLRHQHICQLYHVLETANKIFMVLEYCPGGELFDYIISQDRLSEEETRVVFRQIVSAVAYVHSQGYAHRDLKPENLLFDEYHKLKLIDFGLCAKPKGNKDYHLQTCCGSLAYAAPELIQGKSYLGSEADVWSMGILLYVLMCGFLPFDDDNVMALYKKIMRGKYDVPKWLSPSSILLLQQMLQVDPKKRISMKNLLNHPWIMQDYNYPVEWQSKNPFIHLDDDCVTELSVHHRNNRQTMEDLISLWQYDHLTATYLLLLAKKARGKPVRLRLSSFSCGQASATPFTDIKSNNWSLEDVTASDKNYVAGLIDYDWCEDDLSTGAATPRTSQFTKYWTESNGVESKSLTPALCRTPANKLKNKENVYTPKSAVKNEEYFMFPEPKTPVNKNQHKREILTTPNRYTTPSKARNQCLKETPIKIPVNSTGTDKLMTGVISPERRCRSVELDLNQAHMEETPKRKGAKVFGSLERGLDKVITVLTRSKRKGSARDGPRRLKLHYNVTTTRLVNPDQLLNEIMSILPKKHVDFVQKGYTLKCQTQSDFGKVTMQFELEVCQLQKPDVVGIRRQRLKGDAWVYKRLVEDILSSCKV

Compound: CN1CCN(c2ccc(Nc3nc(Oc4ccc(NC(=O)CCl)cc4)c4cc[nH]c4n3)cc2)CC1 [CPT1-70-1]
- remaining activity at 1 µM (FLT3(K663Q); [1]): 2.4%
- remaining activity at 1 µM (LIMK2; [1]): 100%
- remaining activity at 1 µM (EGFR(G719S); [1]): 34%
- remaining activity at 1 µM (ALK; [1]): 38%
- remaining activity at 1 µM (MELK; [1]): 16%
- remaining activity at 1 µM (LOK; [1]): 100%
- remaining activity at 1 µM (IRAK1; [1]): 53%
- remaining activity at 1 µM (CAMK2G; [1]): 100%
- remaining activity at 1 µM (CAMK2D; [1]): 100%
- remaining activity at 1 µM (CLK3; [1]): 82%
- remaining activity at 1 µM (FLT3(D835Y); [1]): 0.35%
- remaining activity at 1 µM (LIMK1; [1]): 90%
- remaining activity at 1 µM (FGFR3; [1]): 35%
- remaining activity at 1 µM (CDKL3; [1]): 100%
- remaining activity at 1 µM (DYRK1A; [1]): 100%
- remaining activity at 1 µM (MET(M1250T); [1]): 39%
- remaining activity at 1 µM (AURKB; [1]): 61%
- remaining activity at 1 µM (MAP4K2; [1]): 25%
- remaining activity at 1 µM (CDK8; [1]): 100%
- remaining activity at 1 µM (GRK1; [1]): 82%
- remaining activity at 1 µM (CHEK2; [1]): 38%
- remaining activity at 1 µM (BLK; [1]): 1.6%
- remaining activity at 1 µM (CHEK1; [1]): 92%
- remaining activity at 1 µM (FGR; [1]): 4.2%
- remaining activity at 1 µM (KIT(D816V); [1]): 60%
- remaining activity at 1 µM (CDK9; [1]): 90%
- remaining activity at 1 µM (HIPK3; [1]): 74%
- remaining activity at 1 µM (LATS2; [1]): 40%
- remaining activity at 1 µM (DCAMKL3; [1]): 56%

- remaining activity at 1 µM (FLT3(K663Q); [2]): 1.6%
- remaining activity at 1 µM (LIMK2; [2]): 32%
- remaining activity at 1 µM (EGFR(G719S); [2]): 1.8%
- remaining activity at 1 µM (ALK; [2]): 75%
- remaining activity at 1 µM (MELK; [2]): 48%
- remaining activity at 1 µM (LOK; [2]): 0.75%
- remaining activity at 1 µM (IRAK1; [2]): 62%
- remaining activity at 1 µM (CAMK2G; [2]): 100%
- remaining activity at 1 µM (CAMK2D; [2]): 100%
- remaining activity at 1 µM (CLK3; [2]): 88%
- remaining activity at 1 µM (FLT3(D835Y); [2]): 38%
- remaining activity at 1 µM (LIMK1; [2]): 26%
- remaining activity at 1 µM (FGFR3; [2]): 28%
- remaining activity at 1 µM (CDKL3; [2]): 34%
- remaining activity at 1 µM (DYRK1A; [2]): 62%
- remaining activity at 1 µM (MET(M1250T); [2]): 61%
- remaining activity at 1 µM (AURKB; [2]): 43%
- remaining activity at 1 µM (MAP4K2; [2]): 4.6%
- remaining activity at 1 µM (CDK8; [2]): 9.2%
- remaining activity at 1 µM (GRK1; [2]): 100%
- remaining activity at 1 µM (CHEK2; [2]): 63%
- remaining activity at 1 µM (BLK; [2]): 0.1%
- remaining activity at 1 µM (CHEK1; [2]): 100%
- remaining activity at 1 µM (FGR; [2]): 0.75%
- remaining activity at 1 µM (KIT(D816V); [2]): 9.2%
- remaining activity at 1 µM (CDK9; [2]): 100%
- remaining activity at 1 µM (HIPK3; [2]): 55%
- remaining activity at 1 µM (LATS2; [2]): 98%
- remaining activity at 1 µM (DCAMKL3; [2]): 84%
Compound: CCN1CCN(Cc2ccc(NC(=O)c3ccc(C)c(CCc4cnc5[nH]ccc5c4OC)c3)cc2C(F)(F)F)CC1 [HYJ-2-002-1]
